Laboratory results published in patent US20110280930A1, “PRODUCTS AND METHODS FOR STIMULATING AN IMMUNE RESPONSE” (priority 2008, published 2011).

Test system: DN32.D3 cells
Experiment: αGalCer presentation by B cells to iNKT cells (IL-2 production)
Type: cell-based, mouse
Settings: MD4 B cells pulsed with particles or soluble αGalCer, then cocultured with DN32.D3 cells; IL-2 by ELISA
Experimental: Splenic B cells were enriched by negative selection to >99% purity using B cell purification kit (Miltenyi Biotec). For analysis of αGalCer presentation, B cells were incubated overnight with particles containing αGalCer and/or HEL, extensively washed and cultured at 5×10^4 cells per well with the same number of DN32.D3 cells. NKT activation was assayed by measuring IL-2 production in the culture supernatant. For blocking experiments MD4 B cells were incubated with an antiCDld blocking antibody (25 μg/ml; clone 1B1) for 2 h before incubation with iNKT cells.
Concentration of IL-2 in the supernatant of the cultures was determined by ELISA using the JES6-1A12 capture antibody (BD Pharmingen). Biotinylated JSE6-5H4 (BD Pharmingen) was used for detection. Specific antibody in mice sera were measured using plates coated with antigen (HEL, OVA or CGG) and serial dilutions of sera. Bound antibodies were detected with biotin-labelled goat anti-mouse IgM, IgG, IgG1, IgG2b, IgG2c or IgG3 (BD Pharmingen).
We aspired to investigate the impact of targeting iNKT cell help to antigen specific B cells during the development of an immune response. […] Alexa-488-labeled-αGalCer was used to quantify the amount of αGalCer loaded on the beads, and we found this to be 150 ng per μl of beads (10^8 beads/μl). […]

For `CCCCCCCCCCCCCCCCCCCCCCCCCC(=O)N[C@@H](CO[C@H]1O[C@H](CO)[C@H](O)[C@H](O)[C@H]1O)[C@H](O)[C@H](O)CCCCCCCCCCCCCC` [soluble αGalCer, α-galactosylceramide], which “iNKT cell activation (IL-2 production)” value is on record?
Its value is “efficiently presented by B cells and induced IL-2 production”.
